Here are results for 5 molecules from patent publication US11000033B2, “Ketone or oxime compound, and herbicide” (NISSAN CHEMICAL CORPORATION, priority 2014, dated 2021).

Type in all cases: in vivo
Series [1] deals with directly sowed rice plant. Put plainly: Test Example 3: effect on crop by foliage application, Wagner pot (symbol b). The conditions noted are these: application herbicide amount 320 g/ha. A digest of the protocol:
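Wagner pot (1/10000 are), alluvial soil, submerged 0.1–0.5 cm; sown E. crus-galli var. crus-galli, L. chinensis, C. difformis, rice; greenhouse 25–30 °C.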

The test system of a further series is corn. Put plainly: Test Example 5: effect on crop by foliage application, plastic box (symbol c). Particulars: 320 g/ha, 3 weeks after application. A digest of the protocol:
(§1)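 Seeds were sown in spots in sterilized diluvial soil held in a plastic box 21 cm × 13 cm × 7 cm deep, covered with about 1.5 cm of soil, and grown in a greenhouse at 25° C. to 30° C.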

The next series has as its system Setaria viridis. Put plainly: Test Example 4: herbicidal effect by soil treatment (symbol G). A digest of the protocol: (§2)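 Seeds were sown in sterilized diluvial soil, covered with about 1.5 cm of soil, and the soil surface was sprayed with a water-diluted emulsion of the compound at a predetermined rate. Plants grew in a greenhouse at 25° C. to 30° C.; effects were scored visually 3 weeks after application.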

The next series has as its system Apera spica-venti. Put plainly: Test Example 5: herbicidal effect by foliage application, plastic box (symbol L). The conditions noted are these: 320 g/ha, 3 weeks after application. A digest of the protocol: (§3)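 Visual herbicidal score, taken three weeks post-application, of seedlings sprayed on the foliage with water-diluted emulsion at a predetermined amount; plants were 14 days old, greenhouse-raised at 25° C. to 30° C.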

The subject of another series is Veronica persica. Put plainly: Test Example 4: herbicidal effect by soil treatment (symbol R). The method in brief: as §2
The test system of the next series is beet. Put plainly: Test Example 4: effect on crop by soil treatment (symbol f). A digest of the protocol:
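Greenhouse culture at 25° C. to 30° C. followed sowing of seed in spots on sterilized diluvial soil with a soil cover close to 1.5 cm thick.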

The test system of a further series is rapeseed. Put plainly: Test Example 5: effect on crop by foliage application, plastic box (symbol g). The conditions noted are these: 320 g/ha, 3 weeks after application. A digest of the protocol: as §1
Series [2] concerns Monochoria vaginalis. Put plainly: Test Example 2: herbicidal activity, application during weed generation in submerged conditions (symbol C). The conditions noted are these: Table 23; application herbicide amount 320 g/ha; grade 0-5 by criteria of Test Example 1. The method in brief:
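Alluvial soil in pots was flooded to a 4 cm water depth and sown with a mix of the three weed species, then grown in a greenhouse at 25° C. to 30° C. At the one- to two-leaf stage, an emulsifiable formulation diluted in water to a set dose was applied to the water surface. Effects were scored visually 3 weeks later.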

A further series has as its system Abutilon theophrasti. Put plainly: Test Example 5: herbicidal effect by foliage application, plastic box (symbol M). The conditions noted are these: 320 g/ha, 3 weeks after application. A digest of the protocol: as §3
In series [3] the test system is Echinochloa crus-galli var. crus-galli. Put plainly: Test Example 5: herbicidal effect by foliage application, plastic box (symbol H). Particulars: 320 g/ha, 3 weeks after application. A digest of the protocol:
as §3

Series [4] relates to Monochoria vaginalis. Put plainly: Test Example 1: herbicidal activity, application before weed generation in submerged conditions (symbol C). The conditions noted are these: application herbicide amount 320 g/ha. A digest of the protocol: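 Ratings (5: ≥90%, near complete withering; 4: 70–<90%; 3: 40–<70%; 2: 20–<40%; 1: 5–<20%; 0: ≤5%) were assigned 3 weeks after the diluted emulsion was applied to the water surface of freshly sown, submerged pots.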

The test system of the next series is soybean. Put plainly: Test Example 5: effect on crop by foliage application, plastic box (symbol d). Particulars: 320 g/ha, 3 weeks after application. The method in brief:
as §1

A further series concerns Avena fatua. Put plainly: Test Example 4: herbicidal effect by soil treatment (symbol I). A digest of the protocol:
as §2

Where [5] appears, read: application herbicide amount 320 g/ha.

Take `CON=C(C)CC1CC(O)=C(c2c(C)cc(C#CCO)cc2C)C1=O` (mixture of isomers) [6-025]: the “effect on crop b (directly sowed rice plant), grade 0-5” value (from here on “effect on crop b”) in series [1] is on record as 5 (Herbicidal ratio of 90% or more (almost completely withered)). Further, in the series with corn, the “c: corn, effect on crop grade” value was 4 (Herbicidal ratio of 70% or higher and lower than 90%). Further, the “G: Setaria viridis, herbicidal effect grade” value (shortened to “G: Setaria viridis”) in the series with Setaria viridis (setting [5]) is 4 (Herbicidal ratio of 70% or higher and lower than 90%). Besides, the “L: Apera spica-venti, herbicidal effect grade” value in the series on Apera spica-venti was 5 (Herbicidal ratio of 90% or more (almost completely withered)). In addition, the “R: Veronica persica, herbicidal effect grade” value (“R: Veronica persica” below) in the series with Veronica persica (setting [5]) was 0 (Herbicidal ratio of 5% or lower (almost no effect)). Besides, the “f: beet, effect on crop grade” value in the series on beet (setting [5]) was 0 (Herbicidal ratio of 5% or lower (almost no effect)). Also, the “g: rapeseed, effect on crop grade” value with rapeseed is 3 (Herbicidal ratio of 40% or higher and lower than 70%). Besides, the “Herbicidal effect grade, C: Monochoria vaginalis” value (shortened to “Herbicidal effect grade, C”) with Monochoria vaginalis [2] and in the series on Monochoria vaginalis [4] was 0 (Herbicidal ratio of 5% or lower (almost no effect)) in each case. Further, the “M: Abutilon theophrasti, herbicidal effect grade” value in the series with Abutilon theophrasti was 0 (Herbicidal ratio of 5% or lower (almost no effect)). Also, in series [3], the “H: Echinochloa crus-galli var. crus-galli, herbicidal effect grade” value is listed as 5 (Herbicidal ratio of 90% or more (almost completely withered)). In addition, the “d: soybean, effect on crop grade” value in the series with soybean is 0 (Herbicidal ratio of 5% or lower (almost no effect)). The “I: Avena fatua, herbicidal effect grade” value in the series with Avena fatua (setting [5]) is 2 (Herbicidal ratio of 20% or higher and lower than 40%).

Regarding `C=Cc1cc(C)c(C2=C(O)CC(CC(C)=NOC)C2=O)c(C)c1` (mixture of isomers) [6-031], the “effect on crop b” value in series [1] was 4 (Herbicidal ratio of 70% or higher and lower than 90%). In addition, the “c: corn, effect on crop grade” value in the series with corn was 4 (Herbicidal ratio of 70% or higher and lower than 90%). For the same molecule, the “G: Setaria viridis” value in the series on Setaria viridis (setting [5]) is 0 (Herbicidal ratio of 5% or lower (almost no effect)). In the series with Apera spica-venti, the “L: Apera spica-venti, herbicidal effect grade” value was 4 (Herbicidal ratio of 70% or higher and lower than 90%). The “R: Veronica persica” value in the series with Veronica persica (setting [5]) is 0 (Herbicidal ratio of 5% or lower (almost no effect)). Besides, the “f: beet, effect on crop grade” value in the series on beet (setting [5]) is 0 (Herbicidal ratio of 5% or lower (almost no effect)). In addition, the “g: rapeseed, effect on crop grade” value in the series on rapeseed is 3 (Herbicidal ratio of 40% or higher and lower than 70%). The “Herbicidal effect grade, C” value in the series on Monochoria vaginalis [2] and in the series on Monochoria vaginalis [4] was 0 (Herbicidal ratio of 5% or lower (almost no effect)) each time. Also, the “M: Abutilon theophrasti, herbicidal effect grade” value with Abutilon theophrasti was 2 (Herbicidal ratio of 20% or higher and lower than 40%). The “H: Echinochloa crus-galli var. crus-galli, herbicidal effect grade” value in series [3] was 5 (Herbicidal ratio of 90% or more (almost completely withered)). In the series on soybean, the “d: soybean, effect on crop grade” value is recorded as 0 (Herbicidal ratio of 5% or lower (almost no effect)). The “I: Avena fatua, herbicidal effect grade” value in the series with Avena fatua (setting [5]) is 0 (Herbicidal ratio of 5% or lower (almost no effect)).

Regarding `CON=C(C)CC1CC(O)=C(c2c(C)cc(-c3ccc(Cl)nc3)cc2C)C1=O` (mixture of isomers) [6-035], the “effect on crop b” value in series [1] is 5 (Herbicidal ratio of 90% or more (almost completely withered)). The “c: corn, effect on crop grade” value in the series on corn was 5 (Herbicidal ratio of 90% or more (almost completely withered)). Moreover, in the series with Setaria viridis (setting [5]), the “G: Setaria viridis” value is on record as 5 (Herbicidal ratio of 90% or more (almost completely withered)). Further, in the series on Apera spica-venti, the “L: Apera spica-venti, herbicidal effect grade” value was 5 (Herbicidal ratio of 90% or more (almost completely withered)). Further, the “R: Veronica persica” value in the series with Veronica persica (setting [5]) is 3 (Herbicidal ratio of 40% or higher and lower than 70%). Besides, the “f: beet, effect on crop grade” value with beet (setting [5]) is reported as 0 (Herbicidal ratio of 5% or lower (almost no effect)). Also, the “g: rapeseed, effect on crop grade” value in the series on rapeseed was 4 (Herbicidal ratio of 70% or higher and lower than 90%). Also, the “Herbicidal effect grade, C” value was 0 (Herbicidal ratio of 5% or lower (almost no effect)) with Monochoria vaginalis [2]; 1 (Herbicidal ratio of 5% or higher and lower than 20%) with Monochoria vaginalis [4]. Further, the “M: Abutilon theophrasti, herbicidal effect grade” value in the series with Abutilon theophrasti is 4 (Herbicidal ratio of 70% or higher and lower than 90%). Moreover, in series [3], the “H: Echinochloa crus-galli var. crus-galli, herbicidal effect grade” value is listed as 5 (Herbicidal ratio of 90% or more (almost completely withered)). Moreover, in the series with soybean, the “d: soybean, effect on crop grade” value is 2 (Herbicidal ratio of 20% or higher and lower than 40%). For the same molecule, the “I: Avena fatua, herbicidal effect grade” value in the series on Avena fatua (setting [5]) is 3 (Herbicidal ratio of 40% or higher and lower than 70%).

Consider `CON=C(C)CC1CC(OC(=O)c2ccccc2)=C(c2c(C)cc(C)cc2C)C1=O` (centres unmarked) [1-010], for which the “effect on crop b” value in series [1] is 5 (Herbicidal ratio of 90% or more (almost completely withered)). In the series with corn, the “c: corn, effect on crop grade” value is listed as 5 (Herbicidal ratio of 90% or more (almost completely withered)). Moreover, in the series on Setaria viridis (setting [5]), the “G (Setaria viridis) herbicidal effect grade” value was 3 (Herbicidal ratio of 40% or higher and lower than 70%). Besides, the “L: Apera spica-venti, herbicidal effect grade” value in the series on Apera spica-venti is given as 5 (Herbicidal ratio of 90% or more (almost completely withered)). Moreover, the “R (Veronica persica) herbicidal effect grade” value in the series on Veronica persica (setting [5]) was 4 (Herbicidal ratio of 70% or higher and lower than 90%). The “f (beet) effect on crop grade” value in the series with beet (setting [5]) was 4 (Herbicidal ratio of 70% or higher and lower than 90%). In addition, in the series on rapeseed, the “g: rapeseed, effect on crop grade” value is 4 (Herbicidal ratio of 70% or higher and lower than 90%). The “Herbicidal effect grade, C” value with Monochoria vaginalis [2] was 2 (Herbicidal ratio of 20% or higher and lower than 40%); with Monochoria vaginalis [4] it was 2 (Herbicidal ratio of 20% or higher and lower than 40%). Further, the “M: Abutilon theophrasti, herbicidal effect grade” value in the series with Abutilon theophrasti was 4 (Herbicidal ratio of 70% or higher and lower than 90%). The “H: Echinochloa crus-galli var. crus-galli, herbicidal effect grade” value in [3] is 5 (Herbicidal ratio of 90% or more (almost completely withered)). For the same molecule, in the series on soybean, the “d: soybean, effect on crop grade” value is 4 (Herbicidal ratio of 70% or higher and lower than 90%). Besides, the “I (Avena fatua) herbicidal effect grade” value with Avena fatua (setting [5]) is recorded as 5 (Herbicidal ratio of 90% or more (almost completely withered)).

On to `CON=C(C)CC1CC(OS(=O)(=O)C2CC2)=C(c2c(C)cc(C)cc2C)C1=O` (centres unmarked) [1-143], for which the “effect on crop b” value in [1] is 5 (Herbicidal ratio of 90% or more (almost completely withered)). Moreover, in the series with corn, the “c: corn, effect on crop (criteria 0-5)” value is 3 (Herbicidal ratio of 40% or higher and lower than 70%). For the same molecule, the “G: Setaria viridis” value in the series with Setaria viridis (320 g/ha) is 1 (Herbicidal ratio of 5% or higher and lower than 20%). The “L: Apera spica-venti, herbicidal effect (criteria 0-5)” value in the series on Apera spica-venti is listed as 5 (Herbicidal ratio of 90% or more (almost completely withered)). The “R: Veronica persica” value in the series on Veronica persica (320 g/ha) is recorded as 0 (Herbicidal ratio of 5% or lower (almost no effect)). Moreover, the “f: beet, effect grade on crop” value with beet (320 g/ha) is 0 (Herbicidal ratio of 5% or lower (almost no effect)). Besides, the “g: rapeseed, effect on crop (criteria 0-5)” value with rapeseed is 4 (Herbicidal ratio of 70% or higher and lower than 90%). Further, the “Herbicidal effect grade, C” value is 3 (Herbicidal ratio of 40% or higher and lower than 70%) with Monochoria vaginalis [2]; 1 (Herbicidal ratio of 5% or higher and lower than 20%) with Monochoria vaginalis [4]. In addition, the “M: Abutilon theophrasti, herbicidal effect (criteria 0-5)” value with Abutilon theophrasti was 1 (Herbicidal ratio of 5% or higher and lower than 20%). In series [3], the “H: Echinochloa crus-galli var. crus-galli, herbicidal effect (criteria 0-5)” value was 5 (Herbicidal ratio of 90% or more (almost completely withered)). The “d: soybean, effect on crop (criteria 0-5)” value in the series on soybean was 1 (Herbicidal ratio of 5% or higher and lower than 20%). Moreover, the “I: Avena fatua, herbicidal effect grade” value in the series on Avena fatua (320 g/ha) is 2 (Herbicidal ratio of 20% or higher and lower than 40%).
